Test results published in PubChem BioAssay (NCI).
Where “and” joins values, the source holds several entries; their conditions need not be identical. Identical values can stand only once.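 Compound exposure: 48 hours, 5 concentrations, 96-well plates. GI50 marks 50% less growth. TGI marks complete inhibition of growth.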

Columns and labels:
Assay in all cases: NCI tumour cell line growth inhibition, 48 h
M14 melanoma = test system: M14 melanoma
LOX IMVI melanoma = test system: LOX IMVI melanoma
HCT-15 colon = test system: HCT-15 colon
UO-31 renal = test system: UO-31 renal
UACC-62 melanoma = test system: UACC-62 melanoma
IGROV1 ovarian = test system: IGROV1 ovarian
786-0 renal = test system: 786-0 renal
HOP-92 NSCLC = test system: HOP-92 NSCLC
MOLT-4 leukemia = test system: MOLT-4 leukemia
HL-60(TB) leukemia = test system: HL-60(TB) leukemia

SMILES	TGI (M14 melanoma)	TGI (LOX IMVI melanoma) [µM]	TGI (HCT-15 colon)	TGI (UO-31 renal)	TGI (UACC-62 melanoma)	TGI (IGROV1 ovarian)	TGI (786-0 renal)	TGI (HOP-92 NSCLC)	TGI (MOLT-4 leukemia)	GI50 (M14 melanoma)	GI50 (LOX IMVI melanoma) [µM]	GI50 (HCT-15 colon) [µM]	GI50 (UO-31 renal)	GI50 (UACC-62 melanoma) [µM]	GI50 (IGROV1 ovarian)	GI50 (786-0 renal)	GI50 (HOP-92 NSCLC)	GI50 (HL-60(TB) leukemia)	TGI (HL-60(TB) leukemia)	GI50 (MOLT-4 leukemia)
O=C1NC(=O)C2(CCC(O)C2)c2cc[n+]([O-])cc21 (stereo not given)	> 100 µM	> 100	> 100 µM	> 100 µM	> 100 µM	> 100 µM	> 100 µM	> 100 µM	> 100 µM											
COC(=O)c1c2c(c(C)[n+]([O-])c1C)C(=O)C(NCc1cccc(OC)c1)=CC2=O	3.72 µM	6.86	4.73 µM	9.25 µM	3.48 µM	4.11 µM	27.1 µM	6.57 µM	6.67 µM	1.79 µM	2.36	1.89	2.27 µM	1.7	1.69 µM	3.6 µM	2.75 µM	1.78 µM	5.39 µM	2.39 µM
Cc1ccc(C2SCc3nc4ccc(C(=O)c5ccccc5)cc4n32)cc1 (stereo not given)	> 69.1 µM	> 100	> 42.9 µM	54.9 µM	19.3 µM	> 69 µM	42.2 µM	38.8 µM	> 100 µM	11.6 µM	> 36.7	3.85	17 µM	5.29	13.6 µM	13.3 µM	11.7 µM			14.8 µM
O=C(c1ccco1)c1c(C(F)(F)F)nc2cc(C(F)(F)F)ccc2[n+]1[O-]	> 100 µM	> 100	> 100 µM	> 100 µM	> 100 µM	90.6 µM	> 100 µM	68.8 µM	> 100 µM	> 100 µM	48.1	> 100	66.9 µM	> 100	26.5 µM	36.7 µM	16.5 µM	> 100 µM	> 100 µM	> 100 µM
CCOC(=O)CNC(=O)CCCn1c(=O)c2c3ccccc3n(C)c2n2nnc(-c3ccccc3)c12	> 50 µM	> 50	> 50 µM	> 50 µM	21.8 µM	29.9 µM	17.4 µM	14.8 µM	> 50 µM	18.7 µM	25.1	> 50	47.8 µM	7.2	8.87 µM	5.13 µM	3.6 µM	20.6 µM	> 50 µM	> 50 µM
O=C(N/C(=C\c1ccc(Br)cc1)c1nc2ccccc2s1)c1ccccc1	> 100 µM	> 100	> 100 µM	> 100 µM	> 100 µM	> 100 µM	> 100 µM	> 100 µM	> 100 µM											
COc1ccc(NC(=O)Nc2ccc(Nc3nc(C)cc(Nc4ccc(C)cc4)n3)cc2)cc1	3.72 µM	3.35	3.29 µM	2.82 µM	3.04 µM	3.28 µM	0.702 µM	3.11 µM	0.75 µM	1.77 µM	1.79	1.63	1.48 µM	1.41	1.71 µM	0.253 µM	1.44 µM			0.257 µM
Cc1ccc(S(=O)(=O)NC(CCC(=O)Nc2ccccc2)C(=O)Nc2ccccc2)cc1 (stereo not given)	3.62 µM			3.39 µM	1.12 µM		2.04 µM	0.544 µM	> 100 µM	0.404 µM			0.274 µM	0.172		0.491 µM	0.157 µM	0.55 µM	3.08 µM	0.375 µM
C=CC[Se]C(=O)Cc1c(C)n(C(=O)c2ccc(Cl)cc2)c2ccc(OC)cc12	3.16 µM	3.34	3.87 µM	2.88 µM	3.18 µM	3.75 µM	3.19 µM	4.09 µM	8.72 µM	1.64 µM	1.74	1.84	1.54 µM	1.74	1.88 µM	1.73 µM	1.85 µM	2.26 µM	5.56 µM	2.87 µM
CC[C@@H](C)[C@H]([C@H](CC(=O)N1CCC[C@@H]1[C@@H](OC)[C@H](C)C(=O)N[C@H](Cc1ccccc1)c1nccs1)OC)N(C)C(=O)[C@H](NC(=O)[C@@H](C(C)C)N(C)C)C(C)C			0.0054 µM				44.1 µM		> 28.4 µM		0.000425			0.000425	0.000425 µM		0.000425 µM	0.000425 µM		
COc1cc(-c2nn(C(=O)NS(=O)(=O)c3ccc(C)cc3)cc2-c2ccncc2)ccc1Cl	14.2 µM	18.1	44.7 µM	16 µM	10.2 µM	> 100 µM	17.7 µM	77.8 µM	54.1 µM	3.6 µM	3.54	10.2	3.74 µM	2.28	5.1 µM	3.47 µM	10.3 µM	4.63 µM	24.9 µM	10.6 µM
COc1ccc2[nH]c(-c3cccc(N(C)C)c3)cc(=O)c2c1	> 100 µM			> 100 µM	> 100 µM	> 100 µM	> 100 µM		2.71 µM and 1.56 µM	0.325 µM and 0.552 µM	0.599	0.374	0.633 µM	0.483		0.539 µM	3.25 µM	0.231 µM	0.592 µM and 0.569 µM	
CN(C)c1nc(N(C)C)n2nc(-c3ccccc3[N+](=O)[O-])nc2n1	> 100 µM	> 100	31.3 µM	> 100 µM	> 100 µM	> 100 µM	> 100 µM	> 100 µM	> 100 µM										> 100 µM	
CC1CCCN(CC(O)CN2CCCc3ccccc32)C1 (stereo not given)	> 100 µM	> 100	> 100 µM	> 100 µM	> 100 µM	> 100 µM	> 100 µM		> 100 µM										46.6 µM	
CCc1ccc(/C(C)=N/NC(N)=S)cc1	> 100 µM			> 100 µM	> 100 µM	> 100 µM	> 100 µM	> 100 µM	> 100 µM											
NC1=NC2(O)c3ccccc3C(=O)C2(O)N1 (stereo not given)	> 100 µM	> 100	> 100 µM		> 100 µM	> 100 µM	> 100 µM	> 100 µM	> 100 µM										> 100 µM	
CCCCCCNC(=O)Oc1ccc(/C(=C(\C)c2ccccc2)c2ccc(OCCN3CCCCC3)cc2)cc1	3.97 µM	3.09	3.52 µM	2.86 µM	12.5 µM	8.85 µM	3.12 µM	5.04 µM	9.66 µM	1.98 µM	1.71	1.53	1.38 µM	3.63	3.01 µM	1.69 µM	1.51 µM			2.68 µM

SMILES	TGI (M14 melanoma)	TGI (LOX IMVI melanoma) [µM]	TGI (HCT-15 colon)	TGI (UO-31 renal)	TGI (UACC-62 melanoma)	TGI (IGROV1 ovarian)	TGI (786-0 renal)	TGI (HOP-92 NSCLC)	TGI (MOLT-4 leukemia)	GI50 (M14 melanoma)	GI50 (LOX IMVI melanoma) [µM]	GI50 (HCT-15 colon) [µM]	GI50 (UO-31 renal)	GI50 (UACC-62 melanoma) [µM]	GI50 (IGROV1 ovarian)	GI50 (786-0 renal)	GI50 (HOP-92 NSCLC)	GI50 (HL-60(TB) leukemia)	TGI (HL-60(TB) leukemia)	GI50 (MOLT-4 leukemia)
O=C1C(Cl)=C(Nc2cccc(C(F)(F)F)c2)C(=O)N1Cc1ccccc1Cl	19.1 µM	3.75	20.6 µM	> 43.6 µM	13.7 µM	11.2 µM	16.5 µM	28.4 µM	8.53 µM	6.21 µM	1.41	3.42	5.01 µM	3.18	0.186 µM	1.78 µM	8.34 µM			2.56 µM
COc1ccc2c(c1OC)-c1c(c3ccc([N+](=O)[O-])cc3c(=O)n1CCCN=[N+]=[N-])C2=O	10.6 µM	> 100	> 100 µM	> 100 µM	> 100 µM	23.9 µM	15.8 µM	> 100 µM	> 100 µM	3.46 µM	5.99	> 100	3.5 µM	4.59	1.02 µM	3.44 µM	20.3 µM			3.12 µM
Cc1[nH]nc2c1N=C(c1ccccc1F)c1cc(C#N)ccc1N2		16.3		4.01 µM	7.37 µM	16.2 µM	7.27 µM	8.87 µM	> 25 µM		0.285		0.435 µM	3.04	5.4 µM	0.801 µM	0.672 µM	0.0969 µM	8.71 µM	6.25 µM
Cc1ccc2[nH]c(C(=O)NN3C(=O)CSC34CCCC(C)C4)c(-c3ccccc3)c2c1 (stereo not given)	35.5 µM	37.1	37.2 µM	10.6 µM	29.2 µM	12 µM	39.3 µM	28.3 µM	31.9 µM	18.8 µM	19.8	18.3	0.0274 µM	13.9	0.0485 µM	19.6 µM	13.1 µM			8.77 µM
Cc1cccc2c1Oc1cc(Cl)ccc1C2NC(=O)CN(C)C (stereo not given)	51.8 µM	> 100	> 100 µM	> 100 µM	70 µM	> 100 µM	41.4 µM		> 100 µM										45.3 µM	
CCc1ccccc1-n1c2nc(=O)n(C)c(=O)c-2nc2ccccc21	20.8 µM		23.4 µM	48.2 µM	5.15 µM	35.4 µM	30.5 µM		35.4 µM											
O=C(O)C(Br)C(Br)c1ccccc1[N+](=O)[O-] (stereo not given)	> 100 µM	> 100	> 100 µM	94.9 µM	> 100 µM	> 100 µM	> 100 µM	> 100 µM												
COC1(OC)CC2C(=O)N(Cc3ccccc3)C1CC2S(=O)(=O)c1ccccc1 (stereo not given)	> 100 µM	> 100	> 100 µM	> 100 µM	> 100 µM	> 100 µM	> 100 µM		> 100 µM										> 100 µM	
CCCCSCc1nc2nc(Cl)c(Cl)nc2[nH]1	66.6 µM	44.5	85.5 µM		29.5 µM	> 100 µM	69.3 µM	> 100 µM	45.5 µM											
COc1ccc(OC)c(-c2cc(-c3ccccc3)nn2-c2ccc(S(N)(=O)=O)cc2)c1	16.6 µM		17.1 µM	50.4 µM	24.7 µM	> 100 µM	24.6 µM	50.1 µM	> 100 µM	5.38 µM		5.07	17.8 µM	12.1	23.3 µM	11.9 µM	15.5 µM	23.6 µM	> 100 µM	6.44 µM
C[C@H]1COC2(c3ccccc3)CCC(=O)N12 (stereo not given in full)		> 100	> 100 µM		> 100 µM	> 100 µM	> 100 µM	> 100 µM												
CC(C)c1cc(CNc2nc(Nc3cc(C4CC4)[nH]n3)cc(N3CCN(C)CC3)n2)on1	> 10 µM and 2.51 µM		> 10 µM and 8.47 µM	> 10 µM and 5.9 µM	> 10 µM and 2.35 µM	4.94 µM and 7.13 µM	> 10 µM and 3.72 µM	0.821 µM and 0.182 µM	> 10 µM and 8.44 µM				2 µM and 0.688 µM		0.462 µM and 0.175 µM	1.43 µM and 0.223 µM	0.16 µM and 0.0273 µM	0.359 µM and 0.087 µM	> 10 µM and 1.6 µM	2.71 µM and 0.477 µM
CN1CCN(Cc2ccc(NC(=O)c3[nH]ncc3Nc3ncnc4sccc34)cc2)CC1		1.07	> 100 µM	3.54 µM	> 100 µM	> 100 µM	> 100 µM		0.853 µM		0.213	0.254	0.357 µM	0.915	0.396 µM	0.351 µM		0.334 µM	1.07 µM	0.207 µM
O=C1OC(c2ccccc2)=N/C1=C\c1c(O)cc(O)cc1O	> 100 µM	> 100	> 100 µM	> 100 µM	> 100 µM	> 100 µM	> 100 µM	> 100 µM	> 100 µM											
O=C(CCC(=O)N/N=C/c1ccccc1O)N/N=C/c1ccccc1O			> 100 µM	> 100 µM	> 100 µM	> 100 µM	> 100 µM	56.7 µM	> 100 µM											
N#CCC(=O)N/N=C1/C(=O)NC(=O)C(=O)C1c1nc2ccccc2s1 (stereo not given)	> 100 µM	> 100	> 100 µM	> 100 µM	> 100 µM	> 100 µM	> 100 µM	> 100 µM	> 100 µM											
